Experimental data: patent US6365628B1 (Thia Medica AS, priority 1998, dated 2002)

Key:
[1] = tested on: young obese Zucker (fa/fa) rats; experiment: Body weight gain, liver and adipose tissue weights in young obese Zucker rats (Example 9); assay type: in vivo, rat; conditions: 5 week-old male obese Zucker (fa/fa) rats, TTA 300/kg/day in 0.5% CMC, 11 days, means ± SD
Procedure: The obese Zucker (fa/fa) rats used in this study were bred at the U 465 INSERM animal facility from pairs originally provided by the Harriet G. Bird Laboratory (Stow, Mass., USA). Unless otherwise stated, the animals were maintained under a constant light-dark cycle (light from 7:00 a.m. to 7:00 p.m.) at 21±1° C. and were given free access to food and water. Three rats were housed per cage. Weight gains were recorded daily.
5 week-old male obese Zucker (fa/fa) rats fed with TTA, 300/kg/day suspended in 0.5% CMC. Control animals received CMC only. Following 11 days of treatment, rats were killed by cervical dislocation, liver and epididymal adipose tissue pads were dissected out and weighed. Data are means±SD of 6 animals in the control- and 6 animals in the experimental group.

male Wistar rats = experiment: Body weight of male Wistar rats after 12 weeks of treatment (Example 6); assay type: in vivo, rat; conditions: oral TTA
Procedure: 2 groups of 6 male Wistar Rats were randomly selected, and studied for weight development over a period of 12 week. The body weight of each Wistar rat was measured at the start of the experiment. All animals in both groups received individually the same amount of food (nutrition) during the experimental period of 12 weeks. All animals in one of the groups were orally administrated with the medicament comprising TTA. The other group was the control group (CMC). After the 12 week period the body weight of rats were measured again.

Salmonella typhimurium = experiment: Test for mutagenic activity in Salmonella typhimurium strains; assay type: cell-based; conditions: 3-1000 mg/plate (TTA) 2-5000 mg/plate (TSA)
Excerpt: Tests for mutagenic activity have been performed by Covance Laboratories Limited, England. […] Furthermore, TTA was not mutagenic when tested in mouse lymphoma cells […] L5178Y.

[2] = tested on: Wistar Charles River rats; experiment: High fat diet induced hyperinsulinemia (Example 11); assay type: in vivo, rat; conditions: HF diet supplemented with TTA, 21 days, overnight fast (FIG. 3)
Procedure: Glucose (GLU, Boehringer Mannheim, Germany), free fatty acids (NEFA, C ACS-ACOD kit; Wako Chemicals, Dalton, USA) and b-hydroxybutyrate (310-A kit; Sigma Diagnostics Inc., St. Louis, USA) concentrations were measured using enzymatic methods. Insulin concentrations were determined with radioimmunoassay by (CIS bio International, Gif sur Yvette, France) using rat insulin as standard in the Zucker rats. In the Wistar Charles River rats, plasma glucose concentrations were measured with the aid of Beckman Glucose Analyzer (Fullerton, Calif., USA). Plasma insulin levels were measured using a RIA kit from Linco Research Inc. (St. Charles, Mo., USA). Phospholipids were measured by the enzymatic method of bioMérieux, Marcy-l {grave over ( )}Etoile, France, Triacylglycerol by the Technicon Method no. SA4-0324L90, USA and Cholesterol by the Technicon Method no. SA4-0305L90, USA.
Rats weighing 280-360 g were divided into 3 groups (n=6) and fed with three different diets: standard rat chow, high fat diet (HF) and HF supplemented with TTA. After 21 days on their respective diets, blood was collected after an overnight fast from the tail vein. The data are shown as mean±SEM. Results were analysed by ANOVA and different letters denote statistical significance (p<0.05).

[3] = tested on: 5 weeks old Zucker (fa/fa) rats; experiment: Intravenous glucose tolerance test (IVGTT) (Example 15); assay type: in vivo, rat
Procedure: Male Zucker (fa/fa) rats (5 weeks old) were anaesthetised after a 5-hours fast, by intraperitoneal injection of sodium pentobarbital (50 mg/kg). The rats were injected with glucose (0.55 g/kg) in the saphenous vein and blood samples were collected from the tail vein in heparinized tubes at time 0, 5, 10, 15, 20 and 30 minutes after the glucose load. Samples were kept on ice, centrifuged and plasma was stored at −20° C. until analysis.

obese Zucker fa/fa rats = experiment: Fatty acid composition in liver and plasma of obese Zucker fa/fa rats (Example 19); assay type: in vivo, rat; conditions: 300 mg/day/kg gavage once daily for 10 days, delta-9-desaturated product of TTA
Procedure: Male obese Zucker fa/fa rats, weighing 100 g at the start of the experiment, were housed in pairs in metal wire cages in a room maintained at 12 h light-dark cycles and a constant temperature of 20±3° C. The animals were acclimatised for at least one week under these conditions before the start of the experiment.
TTA and palmitic acid (control), was suspended in 0.5% (w/v) carboxymethyl cellulose (CMC) and administered at a dose of 300 mg/day/kg body weight, by gastric intubation (gavage) once daily for 10 days. The rats were fasted for 2 hours before termination of the experiment. Blood and organs were collected. Total lipids were extracted from liver and plasma. The lipids were evaporated, saponified and esterified prior to separation using a Carlo Erba 2900 gas-chromatograph.

## Tetradecylthioacetic acid [TTA]
[1]
  Body weight gain: 6.23 ± 0.28 g/day
  Epididymal adipose tissue/body weight (%): 0.78 ± 0.02%
Male Wistar rats
  Body weight gain/grams: 234 ± 20 grams
Salmonella typhimurium
  Induction of mutations in strains of Salmonella typhimurium: did not induce mutations
[2]
  High fat diet-induced hyperinsulinemia: prevents high fat diet-induced hyperinsulinemia
[3]; TTA treated vs control (FIG. 7B)
  IVGTT glucose curves: normal and comparable
[3]; glucose 0.55 g/kg i.v. (FIG. 7A)
  Plasma insulin response to glucose (IVGTT): significantly lower
Obese Zucker fa/fa rats
  Monounsaturated tetradecylthioacetic acid, fatty acid composition in liver (% of total): 1.1 ± 0.2 % of total
  Monounsaturated tetradecylthioacetic acid, fatty acid composition in plasma (% of total): 0.2 ± 0.1 % of total
